Measurements published in the METLIN SMRT retention time set (Domingo-Almenara et al. 2019).

Assay: gradient 5% acetonitrile 3 min, to 50% in 2 min, to 85% in 15 min, held 3 min, 100 µL/min
Conditions: column: Zorbax Extend-C18 2.1 x 50 mm; eluents: water / acetonitrile, 0.1% formic acid
Procedure, shortened: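 The mobile phases were water and acetonitrile, each with 0.1% formic acid, pumped at 100 μL/min through a Zorbax Extend-C18 column (2.1 × 50 mm, 1.8 μm). Pure standards were injected as mixtures of ~100 molecules and detected by a quadrupole time-of-flight mass spectrometer in positive and negative ionization mode. Retention time came from computationally picked adduct peaks, each inspected by hand.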

CC(C)OC(=O)Cn1nc2ccc(S(=O)(=O)N3CCSCC3)cn2c1=O
RP-LC retention time: 829 s

CCN1C(=O)c2ccccc2Oc2ccc(C(=O)NCCC3=CCCCC3)cc21
RP-LC retention time: 639 s

O=C(NCCCN1CCCC1=O)c1c(OCC2CC2)cc(=O)n2c1CCCCC2
RP-LC retention time: 602 s

CC(C)c1cc(C(=O)N2CCOCC2)nc2ccnn12
RP-LC retention time: 637 s

Cc1ccc(C)c(N2CCN(c3ccnc(SCC(=O)NCc4ccc(F)cc4)n3)CC2)c1
RP-LC retention time: 908 s

CSc1ccccc1CN1CCC(CNC(=O)Nc2c(F)cccc2F)CC1
RP-LC retention time: 580 s

CCc1ccc(Nc2cc(C(=O)N3CCC(C)CC3)nc3cc(OC)c(OC)cc23)cc1
RP-LC retention time: 832 s

COc1ccc(NC(=O)N2CCc3c(c(-c4nnc(-c5ccccc5Cl)o4)nn3C)C2)cc1
RP-LC retention time: 853 s

O=C(Cc1ccc(F)cc1)Nc1nnc(C2CC(=O)N(c3ccc(Cl)cc3)C2)o1 (centres undefined)
RP-LC retention time: 789 s

Cc1ccc(NC(=O)N2CCOCCNC(=O)[C@H]3CCCC[C@H]32)cc1C
RP-LC retention time: 829 s

O=C(Nc1nnc2n1CCS2)c1cc(Br)ccc1Cl
RP-LC retention time: 657 s

CCc1noc(NC(C)=O)c1-c1ccc(C)c(S(=O)(=O)Nc2cc(C)cc(C)c2)c1
RP-LC retention time: 885 s

Cc1ccc(CNC(=O)CSc2ccc(N3CCCC(C(=O)NC4CC4)C3)nn2)cc1 (centres undefined)
RP-LC retention time: 643 s

CC(NC(=O)c1cc(=O)[nH]c2ccc(Br)cc12)c1ccccc1 (centres undefined)
RP-LC retention time: 769 s

CN1C(=O)c2cc(C(=O)N3CCN(c4ncccn4)CC3)nn2CC1(C)C(=O)NC1CCCCC1 (centres undefined)
RP-LC retention time: 702 s

Cc1cnc(C2CN(Cc3cccc(OC(F)(F)F)c3)C2)n1CC1CC1
RP-LC retention time: 594 s

COc1ccc(-c2noc(C3CCCN3C(=O)Nc3cccc(C)c3)n2)cc1 (centres undefined)
RP-LC retention time: 830 s

CCN1c2ccc(F)cc2C(=O)NC12CCN(C(=O)c1ccc(C)cc1)CC2
RP-LC retention time: 824 s

CCC(C)NC(=O)c1cnn(-c2ccc(-c3nc(C(C)(C)C)no3)cn2)c1C (centres undefined)
RP-LC retention time: 1050 s

CCOC(=O)c1c(S(=O)(=O)N2CCC(C(=O)Nc3ccc(OC)cc3)CC2)c(C)n(C)c1C
RP-LC retention time: 804 s

Cc1sc2ccn(Cc3ccc(F)cc3)c(=O)c2c1C(=O)NC1CCCCC1
RP-LC retention time: 973 s

COc1ccc(C2(C(=O)N3CCC(Cc4nc(-c5ccccc5)no4)CC3)CC2)cc1
RP-LC retention time: 1050 s

Cc1cc(C)cc(NC(=O)N2CCCC2c2nc(-c3ccccc3)no2)c1 (centres undefined)
RP-LC retention time: 922 s

COc1cc(CN(C)C2CCc3nnc(C4CCOCC4)n3CC2)cc(OC)c1 (centres undefined)
RP-LC retention time: 544 s

COc1ccc2c(c1)C1(CCN(S(=O)(=O)c3ccccc3F)C1)C(=O)N2 (centres undefined)
RP-LC retention time: 808 s

Cc1cc2[nH]c(C(=O)Nc3ccc(Cl)cc3Cl)c(CN3CCOCC3)c2s1
RP-LC retention time: 759 s

CCn1c(=O)c(N2CCC(C(=O)NCCCN3CCCCC3C)CC2)nc2cccnc21 (centres undefined)
RP-LC retention time: 632 s

CCCC1=C(C(=O)OCC)C(c2ccccc2OC)NC(=O)N1 (centres undefined)
RP-LC retention time: 797 s

CCc1ccc(-c2nc(C3CC(=O)N(c4ccc(C)cc4)C3)no2)cc1 (centres undefined)
RP-LC retention time: 1110 s

CCCNC(=O)Cn1ccc2ccc(-c3nnc(C)o3)cc21
RP-LC retention time: 678 s

O=C(Nc1ccccc1)C1CC(=O)N(c2ccc3c(c2)CCN3C(=O)C2CC2)C1 (centres undefined)
RP-LC retention time: 743 s

CCn1c(CC2CCN(C(=O)NCC(=O)OC)C2)nc2cccnc21 (centres undefined)
RP-LC retention time: 534 s

CCOC(=O)c1cc(-c2ccc(S(=O)(=O)N3CCN(c4ccccn4)CC3)s2)on1
RP-LC retention time: 809 s

O=S(=O)(c1ccc2nc(N3CCN(c4ccccc4F)CC3)ccc2c1)N1CCCCC1
RP-LC retention time: 1160 s

Fc1ccc(Cn2cc(-c3noc(-c4ccc5c(c4)OCO5)n3)nn2)cc1
RP-LC retention time: 937 s

Cc1ccc(-c2cc3c(=O)n(Cc4noc(CN5CCOCC5)n4)ccn3n2)cc1C
RP-LC retention time: 777 s

COc1cccc(N2C(=O)c3ccccc3C2C(=O)NC2CCCC2)c1 (centres undefined)
RP-LC retention time: 775 s

Cc1ccc(S(=O)(=O)N2CCCC(CCC(=O)NC3CCS(=O)(=O)C3)C2)cc1 (centres undefined)
RP-LC retention time: 765 s

Cc1ccc(-c2nc(C3CCN(S(=O)(=O)c4cccc(F)c4)CC3)no2)cc1
RP-LC retention time: 1160 s

Cc1cc(/C=C2\SC(=S)NC2=O)cc(C)c1O
RP-LC retention time: 906 s

CC(C)CCNC(=O)C1CCN(c2cncnc2N(C)C)CC1
RP-LC retention time: 564 s

O=C(CSc1nc(N2CCCCC2)nc2ccccc12)Nc1ccc(Cl)cc1
RP-LC retention time: 804 s

CCOc1ccc2c(n1)CCN(C(=O)NCC(C)C)C2
RP-LC retention time: 740 s

O=C(NCCCN1CCOCC1)c1nc2ccccn2c1-c1ccc(Cl)cc1
RP-LC retention time: 629 s

COCC(=O)N1CCC2(CC1)Nc1ccc(C)c(C)c1-n1cccc12
RP-LC retention time: 823 s

COc1ccc(NC(=O)C2CCCN(c3nccnc3Sc3ccccc3)C2)cc1OC (centres undefined)
RP-LC retention time: 969 s

CN(C)c1nc2cc(C(=O)N3CCOCC3)sc2n1-c1ccccc1
RP-LC retention time: 614 s

O=c1c(=O)n(-c2ccccc2)ccn1Cc1nc(-c2ccc3c(c2)OCO3)no1
RP-LC retention time: 773 s

CN(C)C(=O)OC1=C(c2ccccc2)Sc2ccccc2-n2cccc21
RP-LC retention time: 1250 s

CC1CCN(Cc2nc3cc(NC(=O)c4ccco4)ccc3n2C(C)C)CC1
RP-LC retention time: 643 s

Cc1cc(C)cc(N2C=C(C(=O)N3CCOCC3)S(=O)(=O)c3ccc(F)cc32)c1
RP-LC retention time: 788 s

CC(C)(C)C1CCC(OCC(O)CN2CCN(CCO)CC2)CC1 (centres undefined)
RP-LC retention time: 581 s

COc1ccc(CNC(=O)Cc2nnc(-c3ccc4ncccc4c3)o2)cc1OC
RP-LC retention time: 646 s

COc1ccc2[nH]c3c(c2c1)CCNC31CCN(S(=O)(=O)c2cccnc2)CC1
RP-LC retention time: 634 s

CNC(=O)c1csc(N2CCCC2)n1
RP-LC retention time: 671 s

O=C(NC(c1ccccc1)c1nnc(N2CCCC2)o1)c1ccc(Cl)cc1 (centres undefined)
RP-LC retention time: 860 s

COc1ccc(Cn2c(=O)c3sccc3n(Cc3nc(-c4cccc(C)c4)no3)c2=O)cc1
RP-LC retention time: 1160 s

Nc1nnc(SCc2nnc(-c3ccccc3)o2)s1
RP-LC retention time: 654 s

CN1C(=O)c2ccccc2C(C(=O)N2CCN(c3ccccn3)CC2)C1c1cccs1 (centres undefined)
RP-LC retention time: 608 s

Cc1ccc(C)c(-c2cc3c(=O)n(Cc4nc(-c5ccccc5Cl)no4)ncn3n2)c1
RP-LC retention time: 1220 s

COc1ccc(Cl)cc1S(=O)(=O)N1CCCC(C(=O)NCCCOC(C)C)C1 (centres undefined)
RP-LC retention time: 855 s

O=C1NC2(CCN(C(=O)c3ccccc3F)CC2)N=C1c1ccc(Cl)cc1
RP-LC retention time: 871 s

O=C(NCc1ccc(F)cc1)Nc1c(-c2ccc(F)cc2)nc2ccccn12
RP-LC retention time: 663 s

O=C(Nc1cccnc1N1CCOCC1)C1CCC1
RP-LC retention time: 623 s

CN(C(=O)Cn1cccc1-c1nc(-c2ccc3c(c2)OCO3)no1)c1ccccc1
RP-LC retention time: 1090 s

CCOc1ccc(C2c3[nH]c4ccccc4c3CCN2C(=O)Cc2cccs2)cc1 (centres undefined)
RP-LC retention time: 1190 s

CN(C)c1ccc(CNC(=O)[C@@]23CCCC[C@H]2N(CCc2ccccc2)C(=O)CC3)cc1
RP-LC retention time: 634 s

Cc1ccc(-n2nc(C)c3sc(N4CCCC(C(=O)NC5CCCC5)C4)nc32)cc1 (centres undefined)
RP-LC retention time: 1150 s

Cc1cccc(NS(=O)(=O)c2cn(C(C)C)c3ncccc23)c1C
RP-LC retention time: 946 s

COc1ccc(-n2ccc(=O)c(-c3nc(-c4ccccc4F)no3)n2)cc1
RP-LC retention time: 822 s

O=C(NCc1ccc(F)c(Cl)c1)c1cn2c(n1)CCCC2
RP-LC retention time: 628 s

Cc1sc(NC(=O)CCc2ccccc2)nc1-c1ccc2c(c1)NC(=O)C(C)O2 (centres undefined)
RP-LC retention time: 687 s

Cc1cc2c(=O)n(CC(=O)Nc3cc(Cl)ccc3C)ccc2s1
RP-LC retention time: 847 s

O=C(NC1CC1)c1ccccc1OCC1CCN(C(=O)C2CCCO2)CC1 (centres undefined)
RP-LC retention time: 685 s

COc1ccc(OC)c(S(=O)(=O)N2CCCC(C(=O)NC(C)(C)C)C2)c1 (centres undefined)
RP-LC retention time: 768 s

O=C(CCCc1ccccc1)N1CCN2CCS(=O)(=O)N(C3CC3)C(=O)C2C1 (centres undefined)
RP-LC retention time: 852 s

CCN(CC)C(=O)c1cnc2snc(C)c2c1N1CCC(C(=O)Nc2ccc(Br)c(C)c2)CC1
RP-LC retention time: 1080 s

Cc1ccccc1Nc1c(-c2ccc(Cl)cc2)nc2c(C)cccn12
RP-LC retention time: 802 s

Cn1c(SCC(=O)Nc2nc(-c3ccccc3)cs2)nnc1-c1cc2ccccc2o1
RP-LC retention time: 961 s

O=C(Nc1cccc(-c2cn3cccnc3n2)c1)c1ccc(F)c(F)c1
RP-LC retention time: 706 s

CCOc1ccc2ncc(C(=O)c3ccc(C)cc3)c(N3CCN(C)CC3)c2c1
RP-LC retention time: 561 s

COc1ccc(CNC(=O)C2(C)CCN(S(=O)(=O)c3cccc(Cl)c3C)CC2)cc1
RP-LC retention time: 1030 s

CC(=O)c1cccc(NC(=O)Cn2cnc3nc4c(cc3c2=O)CCCC4)c1
RP-LC retention time: 674 s

O=C(NCc1cccnc1)c1nnc(-c2ccc(S(=O)(=O)N3CCCCC3)cc2)o1
RP-LC retention time: 669 s

CCOc1ccc(NC(=O)N2CCC(n3c(-c4ccco4)nc4cccnc43)C2)cc1 (centres undefined)
RP-LC retention time: 759 s

COc1ccc(CNc2c(C(=O)OC(C)C)cnc3nc(C)ccc23)cc1
RP-LC retention time: 740 s

CCOC(=O)C1CCCN(S(=O)(=O)c2ccc(Cl)c(-c3nnc(-c4ccccc4)o3)c2)C1 (centres undefined)
RP-LC retention time: 1120 s

CCOc1ccc2nc(Nc3ncc4c(n3)CC(c3ccc(C)cc3)CC4=O)nc(C)c2c1 (centres undefined)
RP-LC retention time: 886 s

CCCC(CCC)C(=O)NCCc1c[nH]c2cc(OC)ccc12
RP-LC retention time: 886 s
